The record followed here is patent US8937065B2, “Compositions and methods for modulating a kinase” (Clevexel Pharma, priority 2011, dated 2015).

In assay [1] the test system is B cell receptor NFAT-bla RA1. Nature of the assay: B cell receptor NFAT-bla RA1 inhibition (goat anti-human IgM stimulated, Ramos cells). Conditions: read-out: IC50 B cells mechanism-based: Ramos cells IgM stimulated NFAT activity. The method, then: The inhibition of B cell receptor NFAT-bla RA 1 (activated by goat anti-human IgM, which stimulates the SYK signaling pathway) by several compounds was determined using the Screening Protocol and Assay Conditions (Invitrogen, Madison, Wis.). The assays were performed according to manufacturer's protocols. See Example 4, Cell-line Specific Protocols B cell receptor activity in Ramos cells for details.
(§1) Mechanism-based inhibition assays using compound 7A (Table 1) were performed using GeneBLAzer® Technology (Invitrogen Corporation), according to manufacturer specifications. […] In this state, excitation of the coumarin results in fluorescence resonance energy transfer to the fluorescein moiety and emission of green light. […] Excitation of the coumarin in the presence of Beta-lactamase activity results in a blue fluorescence signal. […]
(§2) An activator assay screen was run to obtain the EC80 concentration of the known activator to add in step 3. • 1. […] 4 μL of the EC80 concentration of activator, as determined in an Activator assay, was added to all wells containing compound and known inhibitor to bring the final assay volume to 40 μL. • 4. […] The assay plate was read on a fluorescence plate reader (Tecan Safire) and the data is analyzed. […]
NFAT-bla RA1 cells were thawed. […] The plate was read on a fluorescence plate reader.

Assay [2] has as its system Interleukin 4/STAT6-STAT6-bla RA1. As to the kind of experiment: Interleukin 4/STAT6-STAT6-bla RA1 inhibition (IL-4-stimulated STAT6 activity in Ramos cells). The format is cell-based. Particulars: Homo sapiens; Ramos cells, IL4 stimulated; read-out: IC50 B cells mechanism-based: Ramos cells IL4 stimulated STAT6 activity. The method, then: The inhibition of Interleukin 4/STAT6-STAT6-bla RA1 (activated by IL-4) by several compounds was determined using the Screening Protocol and Assay Conditions (Invitrogen, Madison, Wis.). The assays were performed according to manufacturer's protocols. Example 4, Cell-line Specific Protocols IL-4-stimulated STAT6 activity in Ramos cells for details.
as §1, §2
STAT6-bla RA1 cells were thawed. […] The plate was read on a fluorescence plate reader.

The test system of another assay is Molt-4 cells. As to the kind of experiment: Proliferation of Molt-4 cells (Cell Titer-Glo). Conditions: Homo sapiens, T cells, outcome-based, read-out: IC50 Proliferation Molt-4 cells (ALL).

For `O=C(CN1CCOCC1)Nc1cccc(-c2nc(-c3c[nH]c(C(=O)N4CCCC4)c3)cs2)c1` [7A, 2-morpholino-N-(3-(4-(5-(pyrrolidine-1-carbonyl)-1H-pyrrol-3-yl)thiazol-2-yl)phenyl)acetamide], the IC50 in assay [1] amounted to 124 nM; in assay [2] it was 32 nM; in the assay with Molt-4 cells, 35000 nM.
